Laboratory results as given in ChEMBL document CHEMBL1201862, “PubChem BioAssay data set” (2004).
Active and inactive are the calls of the source.

Key:
[1] = target: T1, Intestinal-type alkaline phosphatase (Homo sapiens, UniProt P09923); assay: human IAP activators, dose response, biochemical, luminescent, uHTS hits, set 2 (AID 488817); type: functional;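 note: potency of activators that raise enzyme activity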
[2] = target: T1, Intestinal-type alkaline phosphatase; assay: human intestinal alkaline phosphatase activators, dose response, biochemical, luminescence, uHTS hits (AID 463120); type: functional
[3] = target: T2, Alkaline phosphatase, tissue-nonspecific isozyme (Homo sapiens, UniProt P05186); assay: TNAP enzyme activators, dose response, selectivity assay for human IAP activator project, biochemical, TNAP isozyme, human IAP uHTS hits (AID 488886); type: functional;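 note: potency of compounds raising TNAP activity as a selectivity check on IAP activators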
T2 sequence (P05186 whole entry): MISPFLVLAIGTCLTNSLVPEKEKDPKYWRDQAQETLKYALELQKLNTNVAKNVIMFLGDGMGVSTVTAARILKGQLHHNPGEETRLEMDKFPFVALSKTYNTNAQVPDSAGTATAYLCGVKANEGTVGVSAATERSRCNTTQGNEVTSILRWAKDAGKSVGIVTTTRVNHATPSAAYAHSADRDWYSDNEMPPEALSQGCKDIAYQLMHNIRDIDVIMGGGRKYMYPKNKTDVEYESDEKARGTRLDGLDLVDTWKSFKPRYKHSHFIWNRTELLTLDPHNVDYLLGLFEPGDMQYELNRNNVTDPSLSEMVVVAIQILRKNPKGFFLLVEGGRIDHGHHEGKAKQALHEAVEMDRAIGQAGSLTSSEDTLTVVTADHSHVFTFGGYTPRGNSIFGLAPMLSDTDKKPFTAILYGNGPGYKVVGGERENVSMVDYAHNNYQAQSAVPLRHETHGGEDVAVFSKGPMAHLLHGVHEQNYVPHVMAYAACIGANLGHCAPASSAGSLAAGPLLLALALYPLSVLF

[4] = target: Intestinal-type alkaline phosphatase (Mus musculus, UniProt P24822); assay: PubChem AID 488874; type: functional
Cytochrome P450 1A2 = target: T3, Cytochrome P450 1A2 (Homo sapiens, UniProt P05177);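 note: PubChem cytochrome P450 panel assay, CYP1A2 panel member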
T3 sequence (P05177 whole entry): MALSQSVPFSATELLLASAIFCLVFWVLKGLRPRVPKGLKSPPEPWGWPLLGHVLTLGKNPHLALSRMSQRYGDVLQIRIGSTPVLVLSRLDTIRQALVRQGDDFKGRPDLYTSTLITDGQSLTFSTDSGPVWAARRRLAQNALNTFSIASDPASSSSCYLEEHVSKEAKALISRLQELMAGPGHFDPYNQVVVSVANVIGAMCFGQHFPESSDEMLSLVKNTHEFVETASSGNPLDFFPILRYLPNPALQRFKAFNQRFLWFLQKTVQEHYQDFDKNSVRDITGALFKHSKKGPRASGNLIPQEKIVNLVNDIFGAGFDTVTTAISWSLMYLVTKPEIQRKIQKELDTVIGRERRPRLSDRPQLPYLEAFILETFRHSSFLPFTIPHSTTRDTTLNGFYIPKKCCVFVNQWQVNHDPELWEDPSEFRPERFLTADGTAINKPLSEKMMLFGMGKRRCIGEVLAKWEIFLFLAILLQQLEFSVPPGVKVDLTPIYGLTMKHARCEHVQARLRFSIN

Cytochrome P450 2D6 = Cytochrome P450 2D6 (Homo sapiens, UniProt P10635);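 note: CYP2D6 member of a cytochrome P450 panel assay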
[5] = target: Nucleotide-binding oligomerization domain-containing protein 1 (Homo sapiens, UniProt Q9Y239); assay: NOD1 signaling inhibitors, SAR follow-up, revised (AID 2333); type: functional
Tumor necrosis factor = Tumor necrosis factor (Homo sapiens, UniProt P01375); assay: TNFa-triggered NF-kB activation inhibitors, SAR follow-up, cell-based, revised (AID 2337); type: functional
HEK293 = assay: cells; details: Homo sapiens;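 note: cells exposed to compound for 14 hours overnight before viability readout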
[6] = target: Lysine-specific demethylase 4C (Homo sapiens, UniProt Q9H3R0); assay: GASC-1 (JMJD2C) histone demethylase inhibitors, dose response, biochemical, DELFIA europium, cherry-picked samples (AID 488835); type: functional
[7] = HepG2 cell cytotoxicity, dose response, cytotoxicity control for Shn3 inhibitor project, CellTiter-Glo, cherry-picked (AID 624134); type: functional, cell-based
Vero [8] = assay: cells; type: functional; details: Chlorocebus sabaeus
[9] = Shn3 3'UTR reporter inhibitors, dose response, cell-based, Clone20 osteoblasts, firefly luciferase, cherry-picked (AID 624132); type: functional;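 note: firefly luciferase luminescence from reporter carrying the Shn3 3'UTR in osteoblasts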
[10] = control 3'UTR Renilla luciferase suppression, dose response, counter-screen for Shn3 inhibitor project, cell-based, Clone20-Shn3RL, cherry-picked (AID 624133); type: functional
Vero [11] = assay: cells; type: functional, cell-based; details: Chlorocebus sabaeus
cells [12] = type: functional, cell-based
INS1 = assay: beta cell apoptosis inhibitors, cytokine rescue, dose response, luminescence, retest (AID 449756); type: functional, cell-based; details: Rattus norvegicus;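 note: cell death triggered by IL-1 beta plus TNF-alpha plus IFN-gamma mixture; protective hits raise ATP signal compared with cytokine alone wells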
cells [13] = type: functional, cell-based; remark: listed apart in the source
[14] = cytotoxicity in HEK-293T cells, dose response, cytotoxicity control for TCR NF-kB inhibitor project, luminescence, T-cell screen hits (AID 489026); type: functional, cell-based;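 note: cells exposed to compound about 14 hours before the viability readout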
BJ [15] = assay: cytotoxicity toward Ras-transformed BJeLR fibroblasts, dose response, cell-based, alamar blue fluorescence, cherrypicked samples (AID 2631); type: functional; details: Homo sapiens;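 note: confirmatory dose-response assay in RAS-dependent BJ fibroblasts engineered with TERT, LT and ST, with cytotoxicity read by fluorescence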
[16] = NIH-3T3 fibroblast cytotoxicity, dose response, cytotoxicity control, cell-based, fluorescence, Alamar Blue, secondary assay (AID 2327); type: functional;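 note: NIH-3T3 mouse fibroblasts cultured with fluconazole at 8 µg/mL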
BJ [17] = assay: cytotoxicity toward BJ-TERT-LT-ST fibroblasts, dose response, cell-based, RAS-independent, luminescence (AID 1935); type: functional; details: Homo sapiens;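 note: BJ fibroblasts immortalized with TERT plus LT and ST oncogenes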
[18] = cytotoxicity toward DRD oncogenic fibroblasts, dose response, cell-based, non-viral oncogenic, luminescence (AID 1934); type: functional; details: Homo sapiens
[19] = C. albicans growth with fluconazole, confirmation, fluorescence, retest (AID 2467); type: functional, cell-based
BJ [20] = assay: cytotoxicity toward BJ-TERT fibroblasts, dose response, cell-based, RAS-independent, luminescence (AID 1933); type: functional; details: Homo sapiens
BJ [21] = assay: cells; type: functional, cell-based; details: Homo sapiens

T1 sequence (P09923 whole entry): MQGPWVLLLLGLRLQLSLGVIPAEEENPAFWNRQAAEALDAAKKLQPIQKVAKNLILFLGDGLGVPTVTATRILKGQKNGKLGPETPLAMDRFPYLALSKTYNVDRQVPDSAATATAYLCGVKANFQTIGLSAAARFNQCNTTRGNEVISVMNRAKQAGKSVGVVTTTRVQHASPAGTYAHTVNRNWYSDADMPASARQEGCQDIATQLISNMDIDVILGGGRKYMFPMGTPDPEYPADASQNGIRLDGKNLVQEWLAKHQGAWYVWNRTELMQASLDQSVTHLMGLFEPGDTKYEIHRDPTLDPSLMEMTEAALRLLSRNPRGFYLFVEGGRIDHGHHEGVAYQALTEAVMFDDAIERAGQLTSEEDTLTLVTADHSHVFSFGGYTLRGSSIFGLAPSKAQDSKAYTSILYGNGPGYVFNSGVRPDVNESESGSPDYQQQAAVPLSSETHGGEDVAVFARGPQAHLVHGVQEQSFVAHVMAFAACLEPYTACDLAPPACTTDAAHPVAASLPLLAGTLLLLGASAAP
Intestinal-type alkaline phosphatase (Mus musculus, UniProt P24822), sequence (P24822 whole entry): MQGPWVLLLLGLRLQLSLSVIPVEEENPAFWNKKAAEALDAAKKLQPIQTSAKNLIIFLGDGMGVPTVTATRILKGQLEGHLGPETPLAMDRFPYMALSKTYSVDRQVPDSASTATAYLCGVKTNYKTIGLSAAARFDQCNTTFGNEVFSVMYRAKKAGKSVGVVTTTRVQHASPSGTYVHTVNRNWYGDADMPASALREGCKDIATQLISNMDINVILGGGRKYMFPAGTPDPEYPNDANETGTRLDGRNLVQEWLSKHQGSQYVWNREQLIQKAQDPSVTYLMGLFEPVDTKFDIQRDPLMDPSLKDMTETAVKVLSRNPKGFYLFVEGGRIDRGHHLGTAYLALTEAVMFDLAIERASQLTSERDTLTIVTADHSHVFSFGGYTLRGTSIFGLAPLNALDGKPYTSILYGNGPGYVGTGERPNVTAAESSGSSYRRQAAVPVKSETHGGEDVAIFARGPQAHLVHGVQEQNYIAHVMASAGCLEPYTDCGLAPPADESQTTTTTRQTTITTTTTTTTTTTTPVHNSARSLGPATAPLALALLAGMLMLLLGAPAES
Lysine-specific demethylase 4C, sequence (Q9H3R0 whole entry): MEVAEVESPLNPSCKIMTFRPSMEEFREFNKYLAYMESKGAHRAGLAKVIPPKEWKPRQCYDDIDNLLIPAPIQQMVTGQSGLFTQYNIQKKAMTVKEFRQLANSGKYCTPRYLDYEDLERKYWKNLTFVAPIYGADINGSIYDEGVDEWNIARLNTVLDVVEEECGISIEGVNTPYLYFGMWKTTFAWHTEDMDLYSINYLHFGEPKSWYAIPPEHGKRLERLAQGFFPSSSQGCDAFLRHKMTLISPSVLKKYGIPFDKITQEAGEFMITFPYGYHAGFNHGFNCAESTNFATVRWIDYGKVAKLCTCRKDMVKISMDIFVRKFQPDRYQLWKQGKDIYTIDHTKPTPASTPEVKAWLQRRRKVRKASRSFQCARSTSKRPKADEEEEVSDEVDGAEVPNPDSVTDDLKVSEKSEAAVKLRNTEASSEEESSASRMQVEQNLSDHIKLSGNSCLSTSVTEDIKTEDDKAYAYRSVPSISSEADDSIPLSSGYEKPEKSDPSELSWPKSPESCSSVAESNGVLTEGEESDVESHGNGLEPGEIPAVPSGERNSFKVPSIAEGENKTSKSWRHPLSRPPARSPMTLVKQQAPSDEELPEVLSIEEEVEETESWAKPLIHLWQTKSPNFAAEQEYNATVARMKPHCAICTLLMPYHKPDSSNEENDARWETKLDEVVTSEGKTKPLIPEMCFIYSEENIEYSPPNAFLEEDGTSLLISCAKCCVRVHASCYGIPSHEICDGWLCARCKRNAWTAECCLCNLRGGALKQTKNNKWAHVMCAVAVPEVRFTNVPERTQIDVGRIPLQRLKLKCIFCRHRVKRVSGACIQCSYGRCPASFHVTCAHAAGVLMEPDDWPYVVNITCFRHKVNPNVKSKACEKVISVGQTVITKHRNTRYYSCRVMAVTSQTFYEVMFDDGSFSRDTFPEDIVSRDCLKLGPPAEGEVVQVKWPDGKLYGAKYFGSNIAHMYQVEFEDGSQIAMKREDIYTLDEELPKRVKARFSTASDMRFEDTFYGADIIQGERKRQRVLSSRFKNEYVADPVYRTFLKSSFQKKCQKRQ
Nucleotide-binding oligomerization domain-containing protein 1, sequence (Q9Y239 whole entry, the tested form may be a part): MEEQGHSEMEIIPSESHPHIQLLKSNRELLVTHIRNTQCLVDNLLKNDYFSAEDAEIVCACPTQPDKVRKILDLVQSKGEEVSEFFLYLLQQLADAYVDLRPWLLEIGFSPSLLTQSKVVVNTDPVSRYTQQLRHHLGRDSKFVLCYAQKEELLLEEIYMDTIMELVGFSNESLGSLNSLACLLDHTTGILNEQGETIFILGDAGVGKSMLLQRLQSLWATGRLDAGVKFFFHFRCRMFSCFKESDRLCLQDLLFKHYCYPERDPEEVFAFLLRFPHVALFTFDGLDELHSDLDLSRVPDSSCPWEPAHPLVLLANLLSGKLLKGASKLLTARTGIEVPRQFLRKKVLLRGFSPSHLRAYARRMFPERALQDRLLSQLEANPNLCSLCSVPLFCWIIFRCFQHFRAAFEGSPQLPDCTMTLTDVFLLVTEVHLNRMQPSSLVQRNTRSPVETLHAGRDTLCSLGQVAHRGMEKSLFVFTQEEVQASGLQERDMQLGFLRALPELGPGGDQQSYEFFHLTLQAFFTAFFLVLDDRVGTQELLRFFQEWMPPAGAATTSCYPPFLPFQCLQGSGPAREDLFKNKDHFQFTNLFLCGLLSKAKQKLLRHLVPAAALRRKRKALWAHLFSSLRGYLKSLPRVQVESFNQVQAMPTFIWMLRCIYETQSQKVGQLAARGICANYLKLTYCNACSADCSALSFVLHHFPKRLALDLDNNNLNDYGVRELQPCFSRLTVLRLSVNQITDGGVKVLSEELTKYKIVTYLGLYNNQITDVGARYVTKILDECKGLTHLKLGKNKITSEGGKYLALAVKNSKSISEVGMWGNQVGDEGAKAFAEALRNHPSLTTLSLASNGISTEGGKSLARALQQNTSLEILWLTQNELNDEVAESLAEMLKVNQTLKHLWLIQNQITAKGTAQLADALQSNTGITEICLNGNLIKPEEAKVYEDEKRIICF
Cytochrome P450 2D6, sequence (P10635 whole entry, the tested form may be a part): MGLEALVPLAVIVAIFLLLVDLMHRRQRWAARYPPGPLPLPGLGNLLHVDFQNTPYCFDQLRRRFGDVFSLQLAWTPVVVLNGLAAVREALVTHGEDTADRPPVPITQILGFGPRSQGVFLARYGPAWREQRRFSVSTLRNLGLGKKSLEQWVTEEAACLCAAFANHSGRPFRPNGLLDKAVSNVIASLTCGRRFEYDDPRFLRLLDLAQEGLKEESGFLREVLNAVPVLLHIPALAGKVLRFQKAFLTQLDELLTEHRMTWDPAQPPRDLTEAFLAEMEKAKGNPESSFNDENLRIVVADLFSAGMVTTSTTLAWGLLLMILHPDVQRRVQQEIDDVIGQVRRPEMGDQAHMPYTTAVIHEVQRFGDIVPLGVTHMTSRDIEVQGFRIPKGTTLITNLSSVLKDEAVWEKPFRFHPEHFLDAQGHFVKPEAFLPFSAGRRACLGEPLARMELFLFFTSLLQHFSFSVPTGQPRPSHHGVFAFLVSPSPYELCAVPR
Tumor necrosis factor, sequence (P01375 whole entry): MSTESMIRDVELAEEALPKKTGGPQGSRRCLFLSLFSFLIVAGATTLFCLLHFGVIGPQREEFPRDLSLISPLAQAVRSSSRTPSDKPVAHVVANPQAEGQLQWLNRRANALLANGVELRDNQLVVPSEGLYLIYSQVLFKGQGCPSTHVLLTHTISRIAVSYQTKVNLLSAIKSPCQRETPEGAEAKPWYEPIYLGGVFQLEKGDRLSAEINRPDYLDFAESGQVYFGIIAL

Cc1ccsc1C(=O)NNC(=S)NC1CCCCC1
active: EC50 [1] 15 µM | EC50 [2] 10.3 µM | EC50 [3] 13.9 µM | IC50 [4] 56.7 µM

COc1cccc2c1C(=O)c1c(O)c3c(c(O)c1C2=O)C[C@](O)(C(C)=O)C[C@H]3O[C@@H]1C[C@H](N)[C@H](O)[C@H](C)O1
inactive: AC50 (Cytochrome P450 1A2) | AC50 (Cytochrome P450 2D6)

CSc1ccc(NC(=O)c2ccc(CN3CCc4ccccc4C3)cc2)cc1
active: IC50 [5] 0.243 µM | IC50 (Tumor necrosis factor) 0.372 µM | IC50 (HEK293) 7.86 µM

CCN(C[C@H]1N[C@@](CC)(C(=O)OC)[C@H]2C(=O)N(Cc3ccccc3)C(=O)[C@@H]12)S(=O)(=O)c1ccc(C(C)(C)C)cc1
active: AC50 [6] 42.6 µM

CCCCn1c(-c2nonc2NC(=O)c2ccccc2Cl)nc2ccccc21
inactive: AC50 [7] > 70 µM
active: CC50 (Vero [8]) 11.8 µM | AC50 [9] 1.39 µM | AC50 [10] 1.11 µM | IC50 (Vero [11]) 0.73 µM

CCN(CC)c1ccc(/C=N/NC(=O)c2nnn(-c3nonc3N)c2C(C)C)c(O)c1
inactive: IC50 [14] > 80 µM
inconclusive: EC50 (BJ [17]) 6.05 µM | EC50 [18] 8.09 µM | EC50 (BJ [20]) 7.4 µM
active: EC50 (cells [12]) 5.38 µM | AC50 (INS1) < 0.195 µM | EC50 [1] 20.6 µM | EC50 [2] 10.5 µM | EC50 (BJ [15]) 0.199 µM | EC50 [16] 4 µM | EC50 [3] 19 µM | IC50 [4] 78 µM | EC50 [19] 0.401 µM | EC50 (BJ [21]) 2.83 µM
> 350 µM (not active): EC50 (cells [13])
